Earlier results on one compound are cited in patent publication US20200338012A1 (TAHO Pharmaceuticals Ltd., priority 2019, published 2020).

≈ marks a conversion by molar mass, not a printed value.

The conditions of series [1]: oral tablet.

For orientation: bioavailability means the share of a dose that reaches the circulation, judged against a reference dose that is usually intravenous. With `COc1ccc(-n2nc(C(N)=O)c3c2C(=O)N(c2ccc(N4CCCCC4=O)cc2)CC3)cc1` [apixaban, Apixaban], the water solubility was 67.9 µg/mL (≈ 148 µM). The bioavailability in series [1] was 50%.
